Source: PMC10482942, “Novel quinazoline-1,2,3-triazole hybrids with anticancer and MET kinase targeting properties” (Scientific Reports, 2023)

Experiments:
[1] = molecular target: T1, KIT (h) (Homo sapiens, UniProt P10721); test: Radiometric kinase panel assay; assay type: biochemical; settings: Km ATP
T1 construct: purchased Eurofins Discovery

[2] = molecular target: T2, MAPK2 (m) (Mus musculus, UniProt P63085); test: Radiometric kinase panel assay; assay type: biochemical; settings: Km ATP
T2 construct: purchased Eurofins Discovery

[3] = molecular target: T3, AKT1 (h) (Homo sapiens, UniProt P31749); test: Radiometric kinase panel assay; assay type: biochemical; settings: Km ATP
T3 construct: purchased Eurofins Discovery

[4] = molecular target: T4, FMS (h) (Homo sapiens, UniProt P07333); test: Radiometric kinase panel assay; assay type: biochemical; settings: Km ATP
T4 construct: purchased Eurofins Discovery

[5] = molecular target: T5, PDGFRB (h) (Homo sapiens, UniProt P09619); test: Radiometric kinase panel assay; assay type: biochemical; settings: Km ATP
T5 construct: purchased Eurofins Discovery

[6] = test system: AsPC-1 spheroids; test: Three-dimensional spheroid growth inhibition, APH assay; assay type: cell-based, human; settings: for Circularity and solidity of spheroids: AsPC-1 spheroids, after 72 h of treatment, ImageJ; for IC50: Homo sapiens, ASPC1, APH assay, 72 h treatment, read-out: IC50 in AsPC-1 three-dimensional spheroid model
Protocol: Three-dimensional spheroid cell cultures were produced based on the liquid overlay technique. Agarose solution in RPMI (1.5% w/v) was prepared and sterilized in an autoclave. Then, each well of 96-well flat-bottom plates was coated with 50 µl of agarose solution and was left to solidify at room temperature for at least 2 h. One hundred twenty-five µl of a suspension of AsPC-1 cells in RPMI medium containing 10% FBS at a density of 2 × 10^5 cells/ml was added to each well. Afterwards, the plates were centrifuged at 700g for 5 min and incubated under standard culture conditions. After 48 h of incubation, which allowed one spheroid to be formed in each well, 100 µl of the medium was removed, and spheroids were treated with synthesized derivatives diluted in a fresh medium containing 10% FBS for 72 h.
At the final step, cell viability was measured by the acid phosphatase (APH) assay, which is based on the hydrolysis of the p-nitrophenyl phosphate (pNPP) and its conversion to yellow p-nitrophenol by intracellular acid phosphatases present in viable cells. Briefly, 160 µl of the medium was removed and 200 µl of a solution containing 2 mg/ml pNPP dissolved in 0.1 M sodium acetate at pH 4.8 were added to each well and incubated for 120 min at 37 °C. Afterwards, 10 µl of NaOH 1 M was added to each well to stop the reaction, and the absorbance was recorded at 405 nm within 10 min by a Bio-Tek microplate reader (Model Synergy HTX). The images of spheroids were recorded by a bright field microscope (Nikon model DS-Ri2) and analyzed with Nikon NIS-Elements AR imaging software for Windows version 4.30.

[7] = molecular target: T6, AKT2 (h) (Homo sapiens, UniProt P31751); test: Radiometric kinase panel assay; assay type: biochemical; settings: Km ATP
T6 construct: purchased Eurofins Discovery

[8] = molecular target: T7, CDK4/cyclinD3 (h) (Homo sapiens, UniProt P11802); test: Radiometric kinase panel assay; assay type: biochemical; settings: Km ATP
T7 construct: purchased Eurofins Discovery

[9] = molecular target: T8, MAPK1 (h) (Homo sapiens, UniProt P27361); test: Radiometric kinase panel assay; assay type: biochemical; settings: Km ATP
T8 construct: purchased Eurofins Discovery

[10] = molecular target: T9, EGFR (h) (Homo sapiens, UniProt P00533); test: Radiometric kinase panel assay; assay type: biochemical; settings: Km ATP
T9 construct: purchased Eurofins Discovery

[11] = molecular target: T10, RET (h) (Homo sapiens, UniProt P07949); test: Radiometric kinase panel assay; assay type: biochemical; settings: Km ATP
T10 construct: purchased Eurofins Discovery

[12] = molecular target: T11, AXL (h) (Homo sapiens, UniProt P30530); test: Radiometric kinase panel assay; assay type: biochemical; settings: Km ATP
T11 construct: purchased Eurofins Discovery

[13] = molecular target: T12, FLT1 (h) (Homo sapiens, UniProt P17948); test: Radiometric kinase panel assay; assay type: biochemical; settings: Km ATP
T12 construct: purchased Eurofins Discovery

[14] = test system: MET phosphorylation in AsPC-1 cells; test: MET phosphorylation by western blot analysis; assay type: cell-based, human; settings: 10 and 25 μM, 3 h
Protocol: The effect of synthetic compounds on MET phosphorylation in AsPC-1 cells was investigated by western blot analysis. At first, the AsPC-1 cells were seeded in 6-well plates at a density of 250,000 cells/ml and incubated at 37 °C for 24 h. The cultured cells were then treated with the synthetic compounds at different concentrations for 3 h. Then, the cells were harvested via addition of ice-cold RIPA lysis buffer (20 mM Tris base, 150 mM NaCl, 1% Np40, 1 mM EDTA, […] and 0.1% SDS, pH 8.0) containing […] (PMSF; SigmaAldrich), 10 mM Na4O7P2 and 2 mM Na3VO4 and by use of scrapers. Also, PMSF and a protease inhibitor cocktail (Roche) were added to the extraction buffer to prevent the breakdown of the proteins. […] Protein contents of the cell extracts were measured by a bicinchoninic acid protein assay kit (Quanti-Pro BCA, Sigma–Aldrich, St. Louis, USA) using bovine serum albumin as the protein standard. […] Proteins were then detected by incubation with specific primary antibodies, rabbit monoclonal anti-p-MET (dilution 1:1000, catalogue number: 3126, Cell Signaling, Danvers, MA), and rabbit monoclonal anti-MET (dilution 1:1000, catalogue number: 4560, Cell Signaling, Danvers, MA) overnight at 4 °C. […] The band intensities were calculated with the software Gene Tools (SyneGene, Cambridge, UK) for Windows.

[15] = molecular target: T13, MTOR (h) (Homo sapiens, UniProt P42345); test: Radiometric kinase panel assay; assay type: biochemical; settings: Km ATP
T13 construct: purchased Eurofins Discovery

T3 sequence (P31749 whole entry): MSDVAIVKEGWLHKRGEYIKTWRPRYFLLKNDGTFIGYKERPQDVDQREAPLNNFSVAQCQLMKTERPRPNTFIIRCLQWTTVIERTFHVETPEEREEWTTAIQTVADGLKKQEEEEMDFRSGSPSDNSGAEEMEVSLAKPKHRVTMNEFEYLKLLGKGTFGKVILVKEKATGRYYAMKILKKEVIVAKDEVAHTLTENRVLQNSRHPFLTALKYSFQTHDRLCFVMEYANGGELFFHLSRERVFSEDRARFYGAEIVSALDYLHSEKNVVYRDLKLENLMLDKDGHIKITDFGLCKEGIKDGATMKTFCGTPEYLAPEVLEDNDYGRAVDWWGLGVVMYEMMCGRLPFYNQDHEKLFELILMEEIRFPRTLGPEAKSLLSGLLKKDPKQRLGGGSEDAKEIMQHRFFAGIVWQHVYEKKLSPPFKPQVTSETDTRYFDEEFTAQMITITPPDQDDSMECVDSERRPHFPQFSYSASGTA
T1 sequence (P10721 26-976): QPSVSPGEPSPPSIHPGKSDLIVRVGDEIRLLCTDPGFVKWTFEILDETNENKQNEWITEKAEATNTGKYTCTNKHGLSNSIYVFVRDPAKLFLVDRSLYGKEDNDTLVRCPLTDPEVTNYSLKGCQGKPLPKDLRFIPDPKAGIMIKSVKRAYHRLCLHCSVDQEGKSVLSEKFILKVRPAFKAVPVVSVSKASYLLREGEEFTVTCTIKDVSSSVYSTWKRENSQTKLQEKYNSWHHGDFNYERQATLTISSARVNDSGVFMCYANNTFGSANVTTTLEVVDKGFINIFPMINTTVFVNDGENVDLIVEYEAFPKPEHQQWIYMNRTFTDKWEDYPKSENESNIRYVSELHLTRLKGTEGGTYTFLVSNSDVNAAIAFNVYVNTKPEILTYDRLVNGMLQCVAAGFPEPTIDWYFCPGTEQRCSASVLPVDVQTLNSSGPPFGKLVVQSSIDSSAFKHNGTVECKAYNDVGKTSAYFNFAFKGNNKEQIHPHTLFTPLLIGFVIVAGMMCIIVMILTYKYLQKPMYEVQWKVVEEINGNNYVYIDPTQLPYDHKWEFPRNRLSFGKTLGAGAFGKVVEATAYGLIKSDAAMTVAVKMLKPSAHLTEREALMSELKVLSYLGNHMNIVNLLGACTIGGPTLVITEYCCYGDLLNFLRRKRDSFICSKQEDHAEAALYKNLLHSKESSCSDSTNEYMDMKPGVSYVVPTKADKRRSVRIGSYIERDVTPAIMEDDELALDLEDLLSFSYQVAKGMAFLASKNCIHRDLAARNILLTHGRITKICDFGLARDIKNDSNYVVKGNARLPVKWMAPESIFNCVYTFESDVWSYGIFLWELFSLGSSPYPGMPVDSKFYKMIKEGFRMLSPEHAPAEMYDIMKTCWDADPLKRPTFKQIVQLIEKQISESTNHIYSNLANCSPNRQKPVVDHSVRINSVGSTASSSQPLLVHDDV
T2 sequence (P63085 whole entry): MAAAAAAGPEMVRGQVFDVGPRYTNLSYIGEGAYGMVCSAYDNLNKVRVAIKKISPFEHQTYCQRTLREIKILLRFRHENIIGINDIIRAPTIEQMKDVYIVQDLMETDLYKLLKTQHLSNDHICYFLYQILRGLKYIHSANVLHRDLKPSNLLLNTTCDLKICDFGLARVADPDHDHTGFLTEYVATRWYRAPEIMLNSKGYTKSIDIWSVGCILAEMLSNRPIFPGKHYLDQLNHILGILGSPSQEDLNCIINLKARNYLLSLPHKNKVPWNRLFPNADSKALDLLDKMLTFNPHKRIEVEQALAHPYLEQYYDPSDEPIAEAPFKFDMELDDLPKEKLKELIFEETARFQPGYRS
T6 sequence (P31751 whole entry): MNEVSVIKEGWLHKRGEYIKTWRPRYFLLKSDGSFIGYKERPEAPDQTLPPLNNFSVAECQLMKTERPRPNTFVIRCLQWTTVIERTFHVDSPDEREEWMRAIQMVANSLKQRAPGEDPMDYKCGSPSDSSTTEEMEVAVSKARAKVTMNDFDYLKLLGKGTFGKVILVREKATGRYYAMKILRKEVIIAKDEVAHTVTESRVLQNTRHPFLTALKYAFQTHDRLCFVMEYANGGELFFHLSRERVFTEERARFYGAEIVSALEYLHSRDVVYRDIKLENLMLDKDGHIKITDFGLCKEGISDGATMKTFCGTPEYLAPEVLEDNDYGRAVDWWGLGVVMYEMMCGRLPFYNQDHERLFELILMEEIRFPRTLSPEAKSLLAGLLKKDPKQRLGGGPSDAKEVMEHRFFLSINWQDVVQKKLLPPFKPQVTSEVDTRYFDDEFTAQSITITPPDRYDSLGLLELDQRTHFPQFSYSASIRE
T7 sequence (P11802 whole entry): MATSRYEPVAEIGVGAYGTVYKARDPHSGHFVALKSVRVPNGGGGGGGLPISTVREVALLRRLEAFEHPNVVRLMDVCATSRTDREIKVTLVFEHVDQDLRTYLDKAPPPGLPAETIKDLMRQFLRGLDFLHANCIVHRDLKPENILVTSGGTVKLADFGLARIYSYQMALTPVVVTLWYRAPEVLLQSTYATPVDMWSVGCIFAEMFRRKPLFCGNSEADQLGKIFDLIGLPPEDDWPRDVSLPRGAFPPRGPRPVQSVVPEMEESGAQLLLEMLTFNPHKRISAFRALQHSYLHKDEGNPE
T7 sequence (P30281 whole entry partner): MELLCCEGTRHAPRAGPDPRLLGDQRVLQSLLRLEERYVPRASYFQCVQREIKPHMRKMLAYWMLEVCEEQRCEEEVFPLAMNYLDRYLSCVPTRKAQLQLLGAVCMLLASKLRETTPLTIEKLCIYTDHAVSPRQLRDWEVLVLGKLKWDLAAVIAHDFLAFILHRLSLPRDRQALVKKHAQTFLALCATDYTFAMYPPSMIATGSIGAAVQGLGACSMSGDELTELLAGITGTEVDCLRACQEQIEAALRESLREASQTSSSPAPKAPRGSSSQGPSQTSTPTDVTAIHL
T4 sequence (P07333 20-972): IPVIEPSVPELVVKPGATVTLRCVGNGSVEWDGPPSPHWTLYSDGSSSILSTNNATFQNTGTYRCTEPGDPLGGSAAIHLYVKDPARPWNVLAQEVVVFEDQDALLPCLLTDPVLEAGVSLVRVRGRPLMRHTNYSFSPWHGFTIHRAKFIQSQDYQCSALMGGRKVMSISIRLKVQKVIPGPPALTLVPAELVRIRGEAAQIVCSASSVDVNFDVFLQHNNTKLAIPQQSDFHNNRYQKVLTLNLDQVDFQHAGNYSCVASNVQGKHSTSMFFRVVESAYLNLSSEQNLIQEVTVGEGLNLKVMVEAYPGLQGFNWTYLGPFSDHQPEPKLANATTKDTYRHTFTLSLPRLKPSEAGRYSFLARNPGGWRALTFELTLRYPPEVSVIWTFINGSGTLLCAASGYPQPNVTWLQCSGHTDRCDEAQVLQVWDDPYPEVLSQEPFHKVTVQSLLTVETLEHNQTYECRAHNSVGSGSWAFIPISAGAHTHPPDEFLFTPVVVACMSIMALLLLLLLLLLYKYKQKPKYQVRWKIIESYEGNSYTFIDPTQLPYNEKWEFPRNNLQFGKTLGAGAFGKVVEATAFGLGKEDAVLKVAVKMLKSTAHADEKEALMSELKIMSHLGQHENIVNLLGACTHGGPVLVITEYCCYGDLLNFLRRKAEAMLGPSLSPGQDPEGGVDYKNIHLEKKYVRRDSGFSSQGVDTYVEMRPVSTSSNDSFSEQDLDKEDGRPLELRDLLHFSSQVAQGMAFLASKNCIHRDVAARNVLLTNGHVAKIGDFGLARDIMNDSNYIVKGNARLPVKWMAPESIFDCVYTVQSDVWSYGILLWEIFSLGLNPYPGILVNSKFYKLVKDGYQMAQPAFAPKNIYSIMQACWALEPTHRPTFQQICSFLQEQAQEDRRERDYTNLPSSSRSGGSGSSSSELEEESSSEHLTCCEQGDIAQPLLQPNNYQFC
T10 sequence (P07949 29-1114): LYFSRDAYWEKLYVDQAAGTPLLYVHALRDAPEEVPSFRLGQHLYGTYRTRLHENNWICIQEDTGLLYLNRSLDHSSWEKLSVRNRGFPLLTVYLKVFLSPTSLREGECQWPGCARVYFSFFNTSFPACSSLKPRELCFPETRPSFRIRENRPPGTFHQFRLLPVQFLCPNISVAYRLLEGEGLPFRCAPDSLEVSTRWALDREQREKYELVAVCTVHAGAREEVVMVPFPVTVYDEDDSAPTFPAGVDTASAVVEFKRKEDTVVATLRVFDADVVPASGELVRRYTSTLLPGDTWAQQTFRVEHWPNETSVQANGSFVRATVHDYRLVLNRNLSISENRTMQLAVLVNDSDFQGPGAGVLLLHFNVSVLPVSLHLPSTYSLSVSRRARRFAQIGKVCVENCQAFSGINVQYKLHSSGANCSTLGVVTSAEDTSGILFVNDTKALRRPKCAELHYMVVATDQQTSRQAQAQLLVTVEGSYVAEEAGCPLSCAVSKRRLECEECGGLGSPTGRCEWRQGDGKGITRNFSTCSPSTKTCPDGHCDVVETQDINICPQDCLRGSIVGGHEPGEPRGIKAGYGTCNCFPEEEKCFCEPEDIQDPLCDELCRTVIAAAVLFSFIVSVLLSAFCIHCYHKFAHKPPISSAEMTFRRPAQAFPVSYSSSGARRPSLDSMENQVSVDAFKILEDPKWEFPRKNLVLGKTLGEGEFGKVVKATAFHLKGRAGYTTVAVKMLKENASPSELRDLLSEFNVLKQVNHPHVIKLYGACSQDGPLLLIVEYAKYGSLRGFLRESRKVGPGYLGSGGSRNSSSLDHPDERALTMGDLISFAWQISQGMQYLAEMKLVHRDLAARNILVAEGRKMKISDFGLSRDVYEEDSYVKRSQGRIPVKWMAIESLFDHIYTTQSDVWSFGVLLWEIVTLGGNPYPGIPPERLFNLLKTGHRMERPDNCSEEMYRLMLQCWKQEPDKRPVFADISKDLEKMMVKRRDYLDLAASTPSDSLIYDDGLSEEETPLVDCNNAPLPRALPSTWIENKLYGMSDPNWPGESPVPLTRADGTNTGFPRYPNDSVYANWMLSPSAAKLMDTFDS

Structure (SMILES) | inhibition at 10 µM [1] [%] | inhibition at 10 µM [2] [%] | inhibition at 10 µM [3] [%] | inhibition at 10 µM [4] [%] | inhibition at 10 µM [5] [%] | Circularity and solidity of spheroids [6] | IC50 [6] [µM] | inhibition at 10 µM [7] [%] | melting point [°C] | inhibition at 10 µM [8] [%] | inhibition at 10 µM [9] [%] | inhibition at 10 µM [10] [%] | inhibition at 10 µM [11] [%] | inhibition at 10 µM [12] [%] | inhibition at 10 µM [13] [%] | Effect on MET phosphorylation [14] | inhibition at 10 µM [15] [%]
CC(C)(C)c1ccc(Cn2cc(COc3ccc(C=NNc4ncnc5ccccc45)cc3)nn2)cc1 [Compound 8h, 2-(4-((1-(4-Tert-butylbenzyl)-1H-1,2,3-triazol-4-yl)methoxy)benzylidene)-1-(quinazolin-4-yl)hydrazine] | 2 | 7 | 26 | 0 | 7 | significant reduction | 36.6 ± 4.5 | 18 | 205.4 | – | – | – | – | – | – | – | –
Cc1ccc(Cn2cc(COc3ccc(C=NNc4ncnc5ccccc45)cc3)nn2)cc1 [Compound 8c, 2-(4-((1-(4-Methylbenzyl)-1H-1,2,3-triazol-4-yl)methoxy)benzylidene)-1-(quinazolin-4-yl)hydrazine] | 7 | – | 15 | – | – | significant reduction | 32.7 ± 7.2 | – | – | 2 | 5 | 8 | 10 | 12 | 2 | significant suppression of MET phosphorylation | 3
